Measured values taken from ChEMBL document CHEMBL1127472, “Inhibition of topoisomerase I by anthracycline antibiotics: evidence for general inhibition of topoisomerase I by DNA-binding agents” (J Med Chem, 1994).

Key:
[1] = tested on: DNA topoisomerase 1 (Bos taurus); assay: Ratio of DNA relaxation times by topoisomerase in presence of 2 uM of compound (t1/e(+drug) / t 1/e(-drug))
[2] = tested on: DNA topoisomerase 1 (Bos taurus); assay: Ratio of DNA relaxation times by topoisomerase in presence of 9 uM of compound (t1/e(+drug) / t 1/e(-drug))
[3] = tested on: DNA topoisomerase 1 (Bos taurus); assay: Ratio of DNA relaxation times by topoisomerase in presence of 20 uM of compound (t1/e(+drug) / t 1/e(-drug)); Initial complete inhibition
[4] = tested on: DNA topoisomerase 1 (Bos taurus); assay: Ratio of DNA relaxation times by topoisomerase in presence of 20 uM of compound (t1/e(+drug) / t 1/e(-drug)); Complete inhibition
[5] = tested on: DNA; assay: Binding constant was measured for DNA binding at 20 uM concentration
[6] = tested on: DNA topoisomerase 1 (Bos taurus); assay: Ratio of DNA relaxation times by topoisomerase in presence of 18 uM of compound (t1/e(+drug) / t 1/e(-drug))
[7] = tested on: DNA; assay: Binding constant was measured for DNA binding at 17 uM concentration
[8] = tested on: DNA topoisomerase 1 (Bos taurus); assay: Ratio of DNA relaxation times by topoisomerase in presence of 17 uM of compound (t1/e(+drug) / t 1/e(-drug)); Initial complete inhibition

Ratio [1] | Ratio [4] | Ka1 [5] | SMILES | further results
0.92 |  |  | COc1cccc2c1C(=O)c1c(O)c3c(c(O)c1C2=O)C[C@@](O)(C(C)=O)C[C@@H]3OC1CC(O)C(CC2CC(O)C(CC3CCC(=O)C(C)O3)CO2)C(C)O1 (stereo not given in full) | Ratio [2]: 1.4
1.4 |  |  | COc1cccc2c1C(=O)c1c(O)c3c(c(O)c1C2=O)C[C@@](O)(C(C)=O)C[C@@H]3OC1OC(C)C(CC2CC(O)C(CC3CCC(=O)C(C)O3)CO2)C(O)C1I (stereo not given in full) | Ratio [3]: Initial complete inhibition

The remaining lines, values behind:

SMILES | Ratio [1] | Ratio [4] | Ka1 [5] | further results
COc1cccc2c1C(=O)c1c(O)c3c(c(O)c1C2=O)C[C@@](O)(C(C)=O)C[C@@H]3OC1OC(c2ccccc2)C(O)C(O)C1I (stereo not given in full) | 3.5 | Complete inhibition | 400 | 
COc1cccc2c1C(=O)c1c(O)c3c(c(O)c1C2=O)C[C@@](O)(C(C)=O)C[C@@H]3OC1OC(C)C(O)C(O)C1I (stereo in doubt; 2) | 2 | Complete inhibition | 120 | 
COc1cccc2c1C(=O)c1c(O)c3c(c(O)c1C2=O)C[C@@](O)(C(C)=O)C[C@@H]3OC1OC(C)C(O)C(O)C1I (stereo in doubt; form 1) | 0.76 |  |  | Ratio [6]: 1
COc1cccc2c1C(=O)c1c(O)c3c(c(O)c1C2=O)C[C@@](O)(C(C)=O)C[C@@H]3OC1OC(C)C(O)C(O)C1I (stereo in doubt; form 2) | 1.5 |  |  | Ka1 [7]: 5; Ratio [8]: Complete inhibition
